# From paper PMC3165067 (Journal of medicinal chemistry, 2011)
# Assays:
# [1] = biological target: T1, Antithrombin inhibition of factor Xa (Homo sapiens, UniProt P01008); test: Kinetics of antithrombin inhibition of factor Xa in presence of activators; format: biochemical; conditions: for kACT (second-order rate constant of fXa inhibition by AT–activator complex): pH 6.0, 25 mM NaCl, 25 °C, error ±1 S.E.
# [2] = biological target: T1, Antithrombin inhibition of factor Xa; conditions: ref [32], cited from earlier work
# T1 sequence (P01008 33-464): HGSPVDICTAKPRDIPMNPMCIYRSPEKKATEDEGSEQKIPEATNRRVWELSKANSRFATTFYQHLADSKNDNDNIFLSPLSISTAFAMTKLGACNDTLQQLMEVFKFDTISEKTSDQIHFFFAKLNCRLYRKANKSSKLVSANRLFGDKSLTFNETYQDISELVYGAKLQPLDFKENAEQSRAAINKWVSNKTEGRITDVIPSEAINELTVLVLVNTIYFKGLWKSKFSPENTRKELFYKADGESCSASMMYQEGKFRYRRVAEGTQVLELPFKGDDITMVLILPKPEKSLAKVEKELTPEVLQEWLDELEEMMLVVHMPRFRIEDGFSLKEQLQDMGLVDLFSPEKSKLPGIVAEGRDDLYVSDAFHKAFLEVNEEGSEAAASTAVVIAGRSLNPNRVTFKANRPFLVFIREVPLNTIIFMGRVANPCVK
Structure (SMILES),kACT (second-order rate constant of fXa inhibition by AT–activator complex) [1] [M⁻¹ s⁻¹],other results
"O=C(CCCc1cc(OS(=O)(=O)[O-])ccc1OS(=O)(=O)[O-])N1CCc2c(ccc(OS(=O)(=O)[O-])c2OS(=O)(=O)[O-])C1.[Na+].[Na+].[Na+].[Na+] [compound 8, 1-(5,6-di-O-sulfonato-3,4-dihydroisoquinolin-2(1H)-yl)-4-(2,5-di-O-sulfonato-phenyl)butan-1-one tetrasodium]",3337 ± 265,
O=S(=O)([O-])Oc1cc2c(c(OS(=O)(=O)[O-])c1)C[C@@H](OS(=O)(=O)[O-])[C@@H](c1ccc(OS(=O)(=O)[O-])c(OS(=O)(=O)[O-])c1)O2.[Na+].[Na+].[Na+].[Na+].[Na+] [ECS],,"kUNCAT ([2]; 20 mM sodium phosphate buffer, pH 6.0, 0.1 mM EDTA, 0.1% PEG8000): ~120 M⁻¹ s⁻¹; kACT ([2]; pH 6.0, no added NaCl): 909 ± 40 M⁻¹ s⁻¹"
"O=C(Cc1cc(OS(=O)(=O)[O-])ccc1OS(=O)(=O)[O-])N1CCc2cc(OS(=O)(=O)[O-])c(OS(=O)(=O)[O-])cc2C1.[Na+].[Na+].[Na+].[Na+] [compound 7, 1-(6,7-di-O-sulfonato-3,4-dihydroisoquinolin-2(1H)-yl)-2-(2,5-di-O-sulfonato-phenyl) ethanone tetrasodium]",4582 ± 597,

# Second part, led by results:
kACT (second-order rate constant of fXa inhibition by AT–activator complex) [1] [M⁻¹ s⁻¹],Structure (SMILES),other results
8051 ± 751,"O=C([O-])C1Cc2cc(OS(=O)(=O)[O-])c(OS(=O)(=O)[O-])cc2CN1C(=O)CCc1cc(OS(=O)(=O)[O-])ccc1OS(=O)(=O)[O-].[Na+].[Na+].[Na+].[Na+].[Na+] (centres unmarked) [19b, Sodium 2-(3-(2,5-di-O-sulfonato-phenyl)propanoyl)-6,7-di-O-sulfonato-1,2,3,4-tetrahydroisoquinoline-3-carboxylate tetrasodium]",
32630 ± 1644,"O=C([O-])C1Cc2c(OS(=O)(=O)[O-])ccc(OS(=O)(=O)[O-])c2CN1C(=O)Cc1cc(OS(=O)(=O)[O-])ccc1OS(=O)(=O)[O-].[Na+].[Na+].[Na+].[Na+].[Na+] (centres unmarked) [20a, Sodium 2-(2-(2,5-di-O-sulfonato-phenyl)acetyl)-5,8-di-O-sulfonato-1,2,3,4-tetrahydroisoquinoline-3-carboxylate tetrasodium]",
19740 ± 1290,"O=C([O-])C1Cc2cc(OS(=O)(=O)[O-])c(OS(=O)(=O)[O-])cc2CN1C(=O)Cc1cc(OS(=O)(=O)[O-])ccc1OS(=O)(=O)[O-].[Na+].[Na+].[Na+].[Na+].[Na+] (centres unmarked) [19a, Sodium 2-(2-(2,5-di-O-sulfonato-phenyl)acetyl)-6,7-di-O-sulfonato-1,2,3,4-tetrahydroisoquinoline-3-carboxylate tetrasodium]",
46330 ± 2830,"O=C([O-])C1Cc2c(OS(=O)(=O)[O-])ccc(OS(=O)(=O)[O-])c2CN1C(=O)CCCc1cc(OS(=O)(=O)[O-])ccc1OS(=O)(=O)[O-].[Na+].[Na+].[Na+].[Na+].[Na+] (centres unmarked) [20c, Sodium 2-(4-(2,5-di-O-sulfonato-phenyl)butanoyl)-5,8-di-O-sulfonato-1,2,3,4-tetrahydro isoquinoline-3-carboxylate tetrasodium]","AT activation, fold less than that achieved with DEFGH ([1]; 79-fold versus 300-fold for DEFGH): 3.8 fold"
9640 ± 748,"O=C([O-])C1Cc2cc(OS(=O)(=O)[O-])c(OS(=O)(=O)[O-])cc2CN1C(=O)CCCc1cc(OS(=O)(=O)[O-])ccc1OS(=O)(=O)[O-].[Na+].[Na+].[Na+].[Na+].[Na+] (centres unmarked) [19c, Sodium 2-(4-(2,5-di-O-sulfonato-phenyl)butanoyl)-6,7-di-O-sulfonato-1,2,3,4-tetrahydroisoquinoline-3-carboxylate tetrasodium]",
11800 ± 789,"O=C([O-])C1Cc2c(OS(=O)(=O)[O-])ccc(OS(=O)(=O)[O-])c2CN1C(=O)CCc1cc(OS(=O)(=O)[O-])ccc1OS(=O)(=O)[O-].[Na+].[Na+].[Na+].[Na+].[Na+] (centres unmarked) [20b, Sodium 2-(3-(2,5-di-O-sulfonato-phenyl)propanoyl)-5,8-di-O-sulfonato-1,2,3,4-tetrahydroisoquinoline-3-carboxylate tetrasodium]",
